Data reported in patent US12022827B2, “Compositions and methods to reduce dicamba volatility and provide plant essential nutrients” (THE BOARD OF TRUSTEES OF THE UNIVERSITY OF ARKANSAS, priority 2019, dated 2024).

Key:
[1] = test system: soybean glufosinate-resistant cultivar (CDZ 4938); test: Low-tunnel field trial of dicamba volatilization, visible injury to soybean bioindicator (2020); type: in vivo
Description: To further evaluate the efficacy of potassium tetraborate tetrahydrate in reducing volatilization of dicamba, a series of low-tunnel trials were conducted in Fayetteville, Arkansas in 2020, with each trial replicated twice. Experimental treatments were arranged as a single-factor randomized complete block design with three replications. […] A glufosinate-resistant cultivar (CDZ 4938) was planted on 36-inch spaced rows, serving as a bioindicator to quantify visible injury and distance traveled caused by dicamba volatility. Each low-tunnel placed in the field measured 5 by 20 ft (covering two rows of soybean). All tunnels were covered with transparent plastic to create an environment suitable for volatility and to contain the injury. After all tunnels were placed in the field, moistened flats of soil were placed 0.5 miles from the field and treated. Once treated, two flats were placed into appropriate tunnels between two rows of soybean with one flat on either side of a high-volume air sampler located in the center of each tunnel for 48 hours. Afterwards, the flats of soil, air samplers and tunnels were removed from the field. Immediately following trial initiation, pH of each spray solution was collected and analyzed. For data collection, soybean under each tunnel were divided into […] of 5 foot in length where visible injury was assessed on a 0 to 100 scale, where 0 equals no injury and 100 equals plant death. […] All data were subjected to analysis of variance and means separated using Fisher's protected least significance test (α=0.05)

[2] = pH of tank mix, 2019 field trial; type: physicochemical
Description: (§1) A field trial was conducted to determine the effect of adding potassium borate to the herbicide dicamba with respect to the volatilization of dicamba and the movement of dicamba within the environment. In this trial, potassium borate was added to two highly volatile formulations of dicamba, Clarity® (BASF) and Clash™ (Nufarm Americas, Inc), in combination with glyphosate (Roundup PowerMax II®). […] The formulations were applied to a moistened silt loam soil in contained in two plastic trays and placed under 20-foot long tunnels between two rows of dicamba-sensitive (i.e., non-tolerant) soybean crop. […] Soybean injury was visually assessed at 14 and 21 days after initiation of the experiment. Likewise, the distance from the center of the tunnel to the furthest observed 5% level of injury was measured. Air samplers in the center of each tunnel were also used to quantify dicamba volatilization. […]
(§2) In order to evaluate a proprietary volatility reducing agent on several dicamba formulations, two low-tunnel trials were conducted in Fayetteville, Arkansas in 2019. […] Dicamba products evaluated included the diglycolamine (DGA) salt of dicamba (Xtendimax) plus a commercial volatility reduction agent (VaporGrip), DGA salt of dicamba (Clarity) with the volatility reduction agent BK3O3, the dimethylamine (DMA) salt of dicamba (Vanquish), and the DMA salt with BK3O3 along with a nontreated. […]

[3] = test system: dicamba-sensitive soybean; test: Low-tunnel field trial of dicamba volatilization, injury to dicamba-sensitive soybean (2019); type: in vivo; conditions: FIG. 1
Description: as §1, §2

[4] = Kborate concentration of 0.025 molar, even when mixed with the potassium salt of glyphosate
Description: To further evaluate the efficacy of potassium tetraborate tetrahydrate in reducing volatilization of dicamba, a series of low-tunnel trials were conducted in Fayetteville, Arkansas in 2020, with each trial replicated twice. Experimental treatments were arranged as a single-factor randomized complete block design with three replications. […] A glufosinate-resistant cultivar (CDZ 4938) was planted on 36-inch spaced rows, serving as a bioindicator to quantify visible injury and distance traveled caused by dicamba volatility. Each low-tunnel placed in the field measured 5 by 20 ft (covering two rows of soybean). All tunnels were covered with transparent plastic to create an environment suitable for volatility and to contain the injury. After all tunnels were placed in the field, moistened flats of soil were placed 0.5 miles from the field and treated. Once treated, two flats were placed into appropriate tunnels between two rows of soybean with one flat on either side of a high-volume air sampler located in the center of each tunnel for 48 hours. […] Immediately following trial initiation, pH of each spray solution was collected and analyzed. For data collection, soybean under each tunnel were divided into eight quadrants of 5 foot in length where visible injury was assessed on a 0 to 100 scale, where 0 equals no injury and 100 equals plant death. […]

## CP(=O)(O)CCC(N)C(=O)O (stereo not shown) [glufosinate, 2-amino-4-[hydroxy(methyl)phosphoryl]butanoic acid, reference compound]
[1]; glufosinate mixed with dicamba, FIG. 11, 21 days after treatment
  average visual injury to soybean in comparison to dicamba plus glyphosate: increased average visual injury

## [K+].[K+].[K+].[O-]B([O-])[O-] [potassium borate]
[2]; potassium borate 30 g/L added to various formulations of dicamba mixed with glyphosate
  increase in tank mix pH: 1.9-2.15
[2]; potassium borate added to tank mixes comprising glyphosate and various formulations of dicamba
  increase of pH of tank mixes: ≤ 2.15 pH units
[3]; potassium borate 30 g/L added, compared to standard tank mixes of dicamba or dicamba+glyphosate
  reduction of sensitive soybean injury: ≤ 18%
[3]; potassium borate added to dicamba, compared to standard tank mixes of dicamba
  reduction of injury to sensitive soybean: ≤ 18 percentage points

## potassium tetraborate tetrahydrate [Kborate]
[4]
  pH of the spray solution: above 6.0
[1]; 0.015 molar concentration of Kborate
  reducing volatility of dicamba based on injury to soybean, compared with Kacetate: comparable to 0.05 moles of Kacetate
[1]; FIGS. 8-10, 21 days after treatment
  reducing volatility of a dicamba plus glyphosate mixture, compared with Kacetate: outperformed Kacetate
[1]; Kborate added, FIGS. 11-13, 21 days after treatment
  dicamba volatility of dicamba and glufosinate mixtures: reduced dicamba volatility, more so than did Kacetate
[1]; Kborate concentrations of 0.0125 molar or higher, 21 days after treatment, FIGS. 5-7
  volatilization of a dicamba plus glyphosate mixture based on average and maximum injury ratings and distance to 5% injury to soybean: significantly reduced volatilization
